# Results: publication PMC11940343, “In Vitro and In Vivo Evaluation of the De Novo Designed Antimicrobial Peptide P6.2 Against a KPC-Producing P. aeruginosa Clinical Isolate” (Biomolecules, 2025)
# No end group written: not given here.
# Tests used:
# [1] = tested on: Pseudomonas aeruginosa M13513; assay: MIC by broth microdilution (CLSI); assay type: cell-based; settings: CAMHB, two consecutive values shown where replicates varied by one dilution
# From the text: Pseudomonas aeruginosa M13513 is a clinical isolate carrying the carbapenemase KPC-2 (blaKPC-2 gene). This strain was generously supplied by the Servicio Antimicrobianos, Instituto Nacional de Enfermedades Infecciosas (INEI)-ANLIS “Dr. Carlos G. Malbrán” in Buenos Aires, Argentina.
# For antimicrobial testing, bacterial cultures were maintained in Cation-Adjusted Mueller–Hinton Broth (CAMHB), following Clinical and Laboratory Standards Institute (CLSI) guidelines.
# The minimal inhibitory concentration was assessed using a standard microdilution assay, following CLSI guidelines. Mueller–Hinton Broth (Laboratorios Britania S.A., Buenos Aires, Argentina) supplemented with Ca^2+ (20–25 mg/L) and Mg^2+ (10–12.5 mg/L) was used for the assay. The bacterial strains tested included Pseudomonas aeruginosa PAO1, Pseudomonas aeruginosa M13513, and Staphylococcus aureus ATCC® 25923.
# [2] = tested on: P. aeruginosa M13513; assay: Bactericidal effect by killing kinetics (time-kill curve); assay type: cell-based, Pseudomonas aeruginosa; settings: killing kinetics at 64 µg/mL of P6.2
# Procedure: The bactericidal activity was determined according to the CLSI recommendations. In short, the bactericidal activity of the antimicrobial agents on the microorganisms was evaluated using a time–kill curve. The Minimal Bactericidal Concentration (MBC) is the lowest drug concentration required to eliminate 99.9% of viable organisms (a 3-log reduction in CFU/mL compared to the control) after a set incubation period under defined conditions. This is the most common method for estimating bactericidal activity.
# The killing kinetics of an antimicrobial agent allow us to observe how the agent exerts its activity as a function of time, determining viable cells by counting colony-forming units at different time points. Normally, for commonly used antibiotics, this measurement is carried out over a 24-h period, since they reach their maximum activity during this period. However, for AMPs, these times are much shorter; in fact, these antimicrobials exert their maximum activity in just hours or minutes. For this reason, killing kinetics at MIC was carried out by measuring viable bacteria at short intervals over a period of three hours.
# [3] = tested on: P. aeruginosa M13513; assay: Eradication of pre-formed biofilm and cell viability (crystal violet, MTT, CLSM); assay type: cell-based, Pseudomonas aeruginosa; settings: 1xMIC to 8xMIC
# Procedure: Biofilms of P. aeruginosa M13513 were grown in 96-well flat-bottom polystyrene plates using CAMHB for 24 h. Once the biofilms were established, the supernatant was removed, and 100 µL of CAMHB containing two-fold serial dilutions of antimicrobials were added to each well. The plates were then incubated for an additional 24 h at 37 °C.
# For each experiment, two sets of plates were prepared: one for biofilm quantification using the crystal violet (CV) staining method described earlier, and another to assess bacterial cell viability within the biofilm using the MTT assay (3-(4,5-dimethylthiazol-2-yl)-2,5-diphenyltetrazolium bromide). To perform the MTT assay, the medium was carefully removed, and biofilms were washed three times with 200 µL of saline solution. Subsequently, 100 µL of a 0.05% (w/v) MTT solution was added to each well, and the plates were incubated in the dark at 37 °C for 3 h.
# Following incubation, the supernatant was discarded, and the resulting formazan crystals were dissolved in 100 µL of DMSO. The samples were then homogenized by orbital shaking for 10 min. Finally, absorbance was measured at 570 nm using a microplate reader. […]
# The proportion of live and dead bacteria was determined by analyzing three representative images from each biofilm sample using the ImageJ software 1.52v with the FIJI plugin.
# [4] = tested on: P. aeruginosa M13513; assay: Galleria mellonella larval infection model; assay type: in vivo
# From the text: Lepidoptera were reared in the laboratory in a standardized manner. A breeding colony was established, and the different stages of the insect’s life cycle were documented. Adult insects were housed in a plastic container without access to food, allowing for the collection of eggs. Then, eggs and larvae were placed in containers with fresh food, prepared from autoclaved wheat bran (50%), dry yeast (5%), beeswax (6%), honey (26%), and glycerin (13%). In each growth cycle, a pool of larvae was reserved to progress to pupa and adult generation. The larvae and eggs were kept at room temperature during the warm seasons and in an oven with humidity control at 30 °C during the cold seasons. For each experiment, a group of late-stage caterpillars was set aside and kept in the dark at a temperature of 10–12 °C, ensuring their use within one week of collection. For the in vivo tests, larvae of approximately 2 cm in length and an average weight of 250 mg were used. This average weight was used to calculate the antimicrobial doses. The bacterial inoculum used in the larval infection models was prepared from an ON culture, which was washed twice with physiological saline solution and adjusted by measuring OD600nm. […] The larvae were incubated at 37 °C, and their survival was monitored for five days.
# [5] = tested on: human erythrocytes; settings: cited from earlier work
# Procedure: Peptide 6.2 (P6.2) is a de novo designed antimicrobial peptide, with an amphipathic alfa helical structure. […] These findings are also in accordance with the previous results obtained for toxicity by hemolytic activity (hemolysis below 5% until 128 µg/mL).
substance,measurement,setting,value
GLLRKWGKKWKEFLRRVWK-NH2 [Peptide P6.2],MIC,[1],32/64
same,time to 99.9% reduction in viable bacteria (bactericidal effect),[2],less than 45 min
same,bacterial viability inside the pre-formed biofilm,"[3]; MTT assay, confirmed by SYTO9/PI confocal microscopy",significantly decreased the bacterial viability inside the biofilm
same,pre-formed biofilm mass,"[3]; crystal violet, 24 h treatment",diminished the biofilm mass
same,survival compared with meropenem 2.5 alone (log-rank test),[4]; P6.2 5 + Mer 2.5 vs Mer 2.5,not significative differences
same,prevention of larvae death,"[4]; peptide alone, 2.5-80 mg/kg single injection 1 h post infection, 10^3 CFU/larva, n = 10, 5 days",not effective
same,erythrocytes lysis,[5],less than 10%
